From patent publication US8299073B2, “P38 MAP kinase inhibitors” (Respivert Ltd., priority 2008, dated 2012)

Legend:
[1] = target: T1, p38 MAPK alpha (MAPK14: Invitrogen) (Homo sapiens, UniProt Q16539); assay: Enzyme inhibition assay (FRET, Z-LYTE), p38 MAPK alpha, via activation of MAPKAP-K2; assay type: biochemical; conditions: read-out: IC50 values p38α enzyme
T1 construct: purchased Invitrogen

[2] = target: T2, recombinant, phosphorylated p38 MAPK gamma (MAPK12:Millipore) (Homo sapiens, UniProt P53778); assay: Enzyme inhibition assay (FRET, Z-LYTE), p38 MAPK gamma; assay type: biochemical; conditions: read-out: IC50 values P38γ enzyme
T2 construct: purchased Millipore
T2 sequence (P53778 1-367): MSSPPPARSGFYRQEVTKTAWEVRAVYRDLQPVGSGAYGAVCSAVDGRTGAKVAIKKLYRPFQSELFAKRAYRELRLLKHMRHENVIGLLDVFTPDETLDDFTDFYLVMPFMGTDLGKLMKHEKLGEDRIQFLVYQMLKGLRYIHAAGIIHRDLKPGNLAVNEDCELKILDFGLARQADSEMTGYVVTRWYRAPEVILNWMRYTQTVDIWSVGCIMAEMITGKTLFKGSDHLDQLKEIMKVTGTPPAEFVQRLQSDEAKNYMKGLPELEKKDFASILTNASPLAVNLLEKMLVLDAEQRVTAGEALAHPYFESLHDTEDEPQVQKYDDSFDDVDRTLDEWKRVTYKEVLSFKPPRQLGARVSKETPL

[3] = system: LPS-induced TNFα release in differentiated U937 cells; assay: LPS-induced TNF alpha release in differentiated U937 cells; assay type: cell-based; conditions: Homo sapiens; read-out: R-EC50 values d-U937 cells
[4] = system: LPS-induced TNFα release in THP-1 cells; assay: LPS-induced TNF alpha release in THP-1 cells; assay type: cell-based; conditions: Homo sapiens, THP-1; LPS-induced TNFα release; read-out: IC50 values THP-1 cells
[5] = system: Differentiated U937 cells; assay: MTT assay (loss of cell viability); assay type: cell-based, human; conditions: loss of cell viability, 10 ug/ml

T1 sequence (Q16539 whole entry): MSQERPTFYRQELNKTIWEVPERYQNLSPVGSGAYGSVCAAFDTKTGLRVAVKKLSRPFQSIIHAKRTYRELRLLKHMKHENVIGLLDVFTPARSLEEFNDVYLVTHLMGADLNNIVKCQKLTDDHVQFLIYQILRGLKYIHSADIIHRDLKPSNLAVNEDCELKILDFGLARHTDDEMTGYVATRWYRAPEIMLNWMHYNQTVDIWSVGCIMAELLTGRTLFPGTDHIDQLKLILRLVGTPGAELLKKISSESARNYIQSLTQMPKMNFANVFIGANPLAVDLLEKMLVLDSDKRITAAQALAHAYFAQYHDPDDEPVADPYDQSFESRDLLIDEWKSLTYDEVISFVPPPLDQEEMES

Compound | IC50 [1] [nM] | IC50 [2] [nM] | EC50 [3] [nM] | IC50 [4] [nM] | MTT 4 hr [5] | MTT 24 hr [5]
COCCC(=O)Nc1cc(COc2ccc(NC(=O)Nc3cc(C(C)(C)C)nn3-c3ccc(C)cc3)c3ccccc23)ccn1 [Example 14, N-(4-((4-(3-(3-tert-Butyl-1-p-tolyl-1H-pyrazol-5-yl)ureido)naphthalen-1-yloxy)methyl)pyridin-2-yl)-3-methoxypropanamide] | < 10 | < 500 | < 10 | < 10 | − (− <30%) | − (− <30%)
Cc1ccc(-n2nc(C(C)(C)C)cc2NC(=O)Nc2ccc(OCc3ccnc(NC(=O)CCCN(C)C)c3)c3ccccc23)cc1 [Example 16, N-(4-((4-(3-(3-tert-Butyl-1-p-tolyl-1H-pyrazol-5-yl)ureido)naphthalen-1-yloxy)methyl)pyridin-2-yl)-4-(dimethylamino)butanamide] | < 500 | < 500 | < 10 | < 10 | + (+ >30% at 10 ug/ml) | + (+ >30% at 10 ug/ml)
Cc1ccc(-n2nc(C(C)(C)C)cc2NC(=O)Nc2ccc(OCc3ccnc(NC(=O)CCS(C)(=O)=O)c3)c3ccccc23)cc1 [Example 17, N-(4-((4-(3-(3-tert-Butyl-1-p-tolyl-1H-pyrazol-5-yl)ureido)naphthalen-1-yloxy)methyl)pyridin-2-yl)-3-(methylsulfonyl)propanamide] | < 10 | < 500 | < 10 | < 10 | − (− <30%) | − (− <30%)
Cc1ccc(-n2nc(C(C)(C)C)cc2NC(=O)Nc2ccc(OCc3ccnc(NC(=O)N4CCN(S(C)(=O)=O)C4=O)c3)c3ccccc23)cc1 [Example 18, N-(4-((4-(3-(3-tert-Butyl-1-p-tolyl-1H-pyrazol-5-yl)ureido)naphthalen-1-yloxy)methyl)pyridin-2-yl)-3-(methylsulfonyl)-2-oxoimidazolidine-1-carboxamide] | < 500 | > 5000 | < 500 | < 10 | − (− <30%) | − (− <30%)
Cc1ccc(-n2nc(C(C)(C)C)cc2NC(=O)Nc2ccc(OCc3ccnc(NC(=O)CN4CCCC4)c3)c3ccccc23)cc1 [Example 22, N-(4-((4-(3-(3-tert-Butyl-1-p-tolyl-1H-pyrazol-5-yl)ureido)naphthalen-1-yloxy)methyl)pyridin-2-yl)-2-(pyrrolidin-1-yl)acetamide] | < 10 | < 500 | < 10 | < 10 | − (− <30%) | − (− <30%)
COCCN1CCN(CC(=O)Nc2cc(COc3ccc(NC(=O)Nc4cc(C(C)(C)C)nn4-c4ccc(C)cc4)c4ccccc34)ccn2)CC1 [Example 24, N-(4-((4-(3-(3-tert-Butyl-1-p-tolyl-1H-pyrazol-5-yl)ureido)naphthalen-1-yloxy)methyl)pyridin-2-yl)-2-(4-(2-methoxyethyl)piperazin-1-yl)acetamide] | < 10 | < 500 | < 10 | < 10 | − (− <30%) | − (− <30%)
CNCC(=O)Nc1cc(COc2ccc(NC(=O)Nc3cc(C(C)(C)C)nn3-c3ccc(C)cc3)c3ccccc23)ccn1 [Example 27, N-(4-((4-(3-(3-tert-Butyl-1-p-tolyl-1H-pyrazol-5-yl)ureido)naphthalen-1-yloxy)methyl)pyridin-2-yl)-2-(methylamino)acetamide] | < 500 | < 500 | < 10 | < 10 | − (− <30%) | − (− <30%)
COCCSCC(=O)Nc1cc(COc2ccc(NC(=O)Nc3cc(C(C)(C)C)nn3-c3ccc(C)cc3)c3ccccc23)ccn1 [Example 29, N-(4-((4-(3-(3-tert-Butyl-1-p-tolyl-1H-pyrazol-5-yl)ureido)naphthalen-1-yloxy)methyl)pyridin-2-yl)-2-(2-methoxyethylthio)acetamide] | < 500 | < 500 | < 10 | < 10 | − (− <30%) | − (− <30%)
COCCOCCSCC(=O)Nc1cc(COc2ccc(NC(=O)Nc3cc(C(C)(C)C)nn3-c3ccc(C)cc3)c3ccccc23)ccn1 [Example 30, N-(4-((4-(3-(3-tert-Butyl-1-p-tolyl-1H-pyrazol-5-yl)ureido)naphthalen-1-yloxy)methyl)pyridin-2-yl)-2-(2-(2-methoxyethoxy)ethylthio)acetamide] | < 500 | < 500 | < 10 | < 10 | − (− <30%) | − (− <30%)
COCC(=O)Nc1cc(OCCc2ccc(NC(=O)Nc3cc(C(C)(C)C)nn3-c3ccc(C)cc3)c3ccccc23)ccn1 [Example 43, N-(4-(2-(4-(3-(3-tert-butyl-1-p-tolyl-1H-pyrazol-5-yl)ureido)naphthalen-1-yl)ethoxy)pyridin-2-yl)-2-methoxyacetamide] | < 500 | < 5000 | < 500 | < 500 | − (− <30%) | − (− <30%)
COCC(=O)Nc1cc(CC(C)Oc2ccc(NC(=O)Nc3cc(C(C)(C)C)nn3-c3ccc(C)cc3)c3ccccc23)ccn1 (stereo not drawn) [Example 46, N-(4-(2-(4-(3-(3-tert-Butyl-1-p-tolyl-1H-pyrazol-5-yl)ureido)naphthalen-1-yloxy)propyl)pyridin-2-yl)-2-methoxyacetamide] | < 500 | > 5000 | < 500 | < 500 | − (− <30%) | − (− <30%)
COCC(=O)Nc1cc(C(C)COc2ccc(NC(=O)Nc3cc(C(C)(C)C)nn3-c3ccc(C)cc3)c3ccccc23)ccn1 (stereo not drawn) [Example 47, N-(4-(1-(4-(3-(3-tert-Butyl-1-p-tolyl-1H-pyrazol-5-yl)ureido)naphthalen-1-yloxy)propan-2-yl)pyridin-2-yl)-2-methoxyacetamide] | < 500 | > 5000 | < 10 | < 10 | − (− <30%) | − (− <30%)

More lines, main results first:

IC50 [1] [nM] | IC50 [2] [nM] | EC50 [3] [nM] | IC50 [4] [nM] | Compound | MTT 4 hr [5] | MTT 24 hr [5]
< 10 | < 500 | < 10 | < 10 | Cc1ccc(-n2nc(C(C)(C)C)cc2NC(=O)Nc2ccc(OCc3ccnc(NC(=O)CN4CCN(C)CC4)c3)c3ccccc23)cc1 [Example 23, N-(4-((4-(3-(3-tert-Butyl-1-p-tolyl-1H-pyrazol-5-yl)ureido)naphthalen-1-yloxy)methyl)pyridin-2-yl)-2-(4-methylpiperazin-1-yl)acetamide] | + (+ >30% at 10 ug/ml) | + (+ >30% at 10 ug/ml)
< 500 | < 5000 | < 10 | < 10 | COc1ccc(CN(C)CC(=O)Nc2cc(COc3ccc(NC(=O)Nc4cc(C(C)(C)C)nn4-c4ccc(C)cc4)c4ccccc34)ccn2)cc1 [Example 28, N-(4-((4-(3-(3-tert-Butyl-1-p-tolyl-1H-pyrazol-5-yl)ureido)naphthalen-1-yloxy)methyl)pyridin-2-yl)-2-((4-methoxybenzyl)(methyl)amino)acetamide] | − (− <30%) | − (− <30%)
< 500 | < 500 | < 10 | < 10 | Cc1ccc(-n2nc(C(C)(C)C)cc2NC(=O)Nc2ccc(OCc3ccnc(NC(=O)CSCCN4CCOCC4)c3)c3ccccc23)cc1 [Example 31, N-(4-((4-(3-(3-tert-Butyl-1-p-tolyl-1H-pyrazol-5-yl)ureido)naphthalen-1-yloxy)methyl)pyridin-2-yl)-2-(2-morpholinoethylthio)acetamide] | − (− <30%) | + (+ >30% at 10 ug/ml)
< 10 | < 500 | < 10 | < 500 | Cc1ccc(-n2nc(C(C)(C)C)cc2NC(=O)Nc2ccc(OCc3ccnc(NC(=O)CS(=O)(=O)CCN4CCOCC4)c3)c3ccccc23)cc1 [Example 32, N-(4-((4-(3-(3-tert-Butyl-1-p-tolyl-1H-pyrazol-5-yl)ureido)naphthalen-1-yloxy)methyl)pyridin-2-yl)-2-(2-morpholinoethylsulfonyl)acetamide] | − (− <30%) | − (− <30%)
< 10 | < 5000 | < 10 | < 10 | COCCN(CCOC)CC(=O)Nc1cc(COc2ccc(NC(=O)Nc3cc(C(C)(C)C)nn3-c3ccc(C)cc3)c3ccccc23)ccn1 [Example 33, 2-(Bis(2-methoxyethyl)amino)-N-(4-((4-(3-(3-tert-butyl-1-p-tolyl-1H-pyrazol-5-yl)ureido)naphthalen-1-yloxy)methyl)pyridin-2-yl)acetamide] | − (− <30%) | − (− <30%)
